Patent US20100028366A1, “SYNERGISTIC EFFECT BETWEEN A […] AND ANOTHER OXIDATIVE INDUCING SYSTEM FOR TREATING TUMORS” (priority 2005, published 2010)

Legend:
Format in all cases: cell-based, canine
W&Wlis cells [1] = assay: Measurement of intracellular ATP; details: linamarin (500 μg/ml) and/or glucose oxidase (5 mEU/ml), over time, versus untreated cells
Protocol: The levels of intracellular energy in the form of ATP decrease when a blockage of the mitochondrial electron transport chain occurs since it is the essential source of obtaining energy of the cells. […] This effect is due to the fact that the maximum H2O2 production by glucose oxidase occurs at short times because the cells have the ability of detoxifying the peroxide and due to the fact that glucose oxidase is inactivated over time by the serum proteins.
10^5 W&Wlis cells were seeded in test tubes with a screw-on cap and flat side (Nunc). After 24 hours, the medium was changed, adding linamarin (500 μg/ml) and glucose oxidase (5 mEU/ml) where appropriate. After 4, 8, 12, 24, 48 or 72 hours, the cells were centrifuged and processed following the instructions of the ATP Bioluminescence Assay Kit CLS II, of Roche Applied Science. The luminescence was analyzed with a Monolight 2010 luminometer (Analytical Luminescence Laboratory, San Diego) and expressed in relative light units (RLU).

W&Wlis cells [2] = assay: Cell viability analysis by MTT
Protocol: The mitochondrial enzymatic activity as indicative of cell viability was determined by means of using tetrazolium salts. In this assay 10^5 cells/test tube (culture test tubes with a flat side and screw-on cap to prevent the exit of HCN; Nunc) or 10^4 cells/well of 24-well plates closed with parafilm were seeded. After 24 hours of incubation fresh culture medium supplemented with the concentrations of linamarin (between 50 and 500 μg/ml) and glucose oxidase (5 mEU/ml) necessary for each experiment was added. In the assays in which it applied, the medium was supplemented with N-acetyl cysteine (10 mM), 1,5-isoquinolinediol (300 μM) or Z-VAD-fmk (100 μM). After the time stipulated in each experiment (between 12 and 96 hours), the culture medium was removed and fresh medium with 200 μg/mL of MTT (3-[4,5-dimethylthiazo-2-yl]-2,5-diphenyl tetrazolium bromide) was added. After 1.5 hours of incubation, the medium was removed and 3 ml (for the test tubes) or 1 ml (for the 24-well plates) of dimethyl sulfoxide was added to dissolve the formazan. After 10 minutes, the absorbance of the samples at 540 nm was determined. MTT is a tetrazolium salt soluble in aqueous medium (yellow) which is transformed by the mitochondrial dehydrogenases in formazan, an insoluble compound in aqueous medium (purple).

W&Wlis cells [3] = assay: Determination of the extracellular peroxide concentration; details: 48 hours; 0.5 mg/ml of linamarin and/or 5 mEU/ml of glucose oxidase; control approximately 20 μM
Protocol: The H2O2 levels (FIG. 3B) produced extracellularly in the combined therapy were further studied in the invention. To do so, the amount of H2O2 present in the culture medium of W&Wlis cells at 48 hours in a treatment with 0.5 mg/ml of linamarin, in the presence of 5 mEU/ml of glucose oxidase or in the combination of both treatments, was analyzed although positive results were also obtained using other concentrations.
The samples to be analyzed were diluted in 1 ml of 0.1 M phosphate buffer pH 7.4. Then 3.7 EU/ml of peroxidase (Sigma-Aldrich, St. Louis, USA) and 0.1 mg/ml of ortho-dianisidine (Sigma-Aldrich, St. Louis, USA) were added. The samples were incubated at room temperature for 30 minutes and absorbances at 436 nm were determined. The H2O2 concentration was obtained by interpolation of the data obtained in a standard line performed with increasing concentrations of H2O2.

W&Wlis cells [4] = assay: DNA content analysis by flow cytometry, labeling with propidium iodide; design: unit not given here; details: Without GO

CC(C)(C#N)O[C@@H]1O[C@H](CO)[C@@H](O)[C@H](O)[C@H]1O [lin, 2-hydroxy-isobutyronitrile-β-D-glucopyranoside]
intracellular ATP levels (W&Wlis cells [1]): progressive and rapid depletion of ATP which becomes almost complete after 48 hours
effect of NAC addition on death in the cell viability assay by MTT (W&Wlis cells [2]; 10 mM N-acetyl cysteine (NAC) in the medium): did not cause any effect
cell survival by MTT (W&Wlis cells [2]; 96 hours, linamarin 200 to 500 μg/ml, without GO): drastic reduction of the survival
time after which cell viability begins to decrease (MTT) (W&Wlis cells [2]; linamarin alone, or combined therapy at 500 μg/ml linamarin with 5 mEU/ml glucose oxidase): 48 h
extracellular H2O2 concentration in the culture medium (W&Wlis cells [3]): did not cause significant variations
DNA content by flow cytometry, labeling with propidium iodide (W&Wlis cells [4]; 50 μg lin, 48 hours): 1.95
DNA content by flow cytometry, labeling with propidium iodide (W&Wlis cells [4]; 50 μg lin, 72 hours): 2.77
DNA content by flow cytometry, labeling with propidium iodide (W&Wlis cells [4]; 200 μg lin, 48 hours): 1.89
DNA content by flow cytometry, labeling with propidium iodide (W&Wlis cells [4]; 200 μg lin, 72 hours): 3.14
DNA content by flow cytometry, labeling with propidium iodide (W&Wlis cells [4]; 500 μg lin, 48 hours): 3.21
DNA content by flow cytometry, labeling with propidium iodide (W&Wlis cells [4]; 500 μg lin, 72 hours): 4.91
